Measurements: patent US4732890A, “Retro-inverso hexapeptide neurotensin analogs, process for their preparation and pharmaceutical compositions containing them” (Eniricerche S.p.A., priority 1985, dated 1988)

How the values were obtained:
[1] = cited from earlier work
male rats = assay: Blood pressure after i.v. injection in urethane-anesthetized male rats; type: in vivo, rat; conditions: 20 meq/Kg; for Arterial pressure: i.v. right femoral vein, basal 80-130 mmHg; for Pressure Δ: i.v., versus basal 80-130 mmHg
Protocol: Typically, male rats weighing about 200-300 g, anesthetized with urethane (1.75 g/Kg i.p.), were employed in these tests and the hexapeptide [drawing 9] was administered by i.v. injection in the right femoral vein at a dosage of 20 meq/Kg body weight.
Blood pressure was recorded at different times following the injection.
The basal values were on the average 80-130 mmHg.

## Arg-Arg-Pro-Tyr-Ile-Leu (RRPYIL; printed: Arg-Arg-Pro-Tyr-Ile-Leu) [C-terminal hexapeptide, C-terminal hexapeptide fragment of NT]
[1]
  in vivo biological activity relative to NT: much lower than NT itself

## Arginyl-arginyl-prolyl-tyrosyl-gem diamino-isoleucyl-(R,S)malonyl-leucine [Example 1]
Male rats; 30' from admin.
  Arterial pressure: 80-125 mmHg
  Pressure Δ: 0-5
Male rats; 1 h from admin.
  Arterial pressure: 75-125 mmHg
  Pressure Δ: 5-5
Male rats; 2 h from admin.
  Arterial pressure: 75-125 mmHg
  Pressure Δ: 5-5
Male rats; 2.5 h from admin.
  Arterial pressure: 75-120 mmHg
  Pressure Δ: 5-10
Male rats; 3.5 h from admin.
  Arterial pressure: 75-120 mmHg
  Pressure Δ: 5-10
Male rats; 4.5 h from admin.
  Arterial pressure: 70-110 mmHg
  Pressure Δ: 10-20
Male rats; 5 h from admin.
  Arterial pressure: 70-110 mmHg
  Pressure Δ: 10-20
Male rats; 6 h from admin.
  Arterial pressure: 65-105 mmHg
  Pressure Δ: 15-25
